From publication PMC4263554, “A Comparative Study of Impedance versus Optical Label-Free Systems Relative to Labelled Assays in a Predominantly Gi Coupled GPCR (C5aR) Signalling” (Biosensors, 2012)
“And” between values parts separate entries of the source, which are not always exact repeats. Identical values can stand only once. “Also recorded” adds a separate entry of the source. Non-standard residues stand in square brackets, D forms with d. Residues, ends and D or L forms follow the SMILES beside them. d1Nal = N[C@H](Cc1cccc2ccccc12)C(=O)O; NMeF = CN[C@@H](Cc1ccccc1)C(=O)O; dCha = N[C@H](CC1CCCCC1)C(=O)O

T1: human C5aR (Homo sapiens, UniProt P21730)
T1 construct: host or cells: CHO cells, stably transfected (G418 selection)
T1 sequence (P21730 1-350): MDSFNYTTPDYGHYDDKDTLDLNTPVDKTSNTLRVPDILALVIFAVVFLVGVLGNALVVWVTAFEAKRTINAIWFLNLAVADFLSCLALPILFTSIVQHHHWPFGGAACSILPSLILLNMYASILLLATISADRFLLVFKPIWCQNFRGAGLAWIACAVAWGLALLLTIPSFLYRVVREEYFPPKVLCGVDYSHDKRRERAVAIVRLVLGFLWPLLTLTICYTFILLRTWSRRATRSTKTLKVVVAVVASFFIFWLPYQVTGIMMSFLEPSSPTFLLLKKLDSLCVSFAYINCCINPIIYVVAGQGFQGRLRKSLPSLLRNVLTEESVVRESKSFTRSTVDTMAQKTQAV

B1: C5a des-Arg (protein)
chain: TLQKKIEEIAAKYKHSVVKKCCYDGACVNNDETCEQRAARISLGPRCIKAFTECCVVASQLRANISHKDMQLG
modifications: glycosylated (N-glycan at Asn64 of C5a, Asn741 of precursor, by convention); three intrachain disulfides
notes: C5a minus its C-terminal arginine, purchased from Merck
B2: C5a: endogenous 74 residue protein ligand of human C5aR, purchased from Sigma Aldrich and Sino Biological Inc (protein, UniProt P01031 678-751, looked up)
C5a anaphylatoxin: TLQKKIEEIAAKYKHSVVKKCCYDGACVNNDETCEQRAARISLGPRCIKAFTECCVVASQLRANISHKDMQLGR
modifications: C5a anaphylatoxin
notes: endogenous 74 residue protein ligand of human C5aR, purchased from Sigma Aldrich and Sino Biological Inc

Experiments:
human C5aR [1] = target: T1, human C5aR; experiment: xCELLigence label-free impedance system on HMDM; type: cell-based; details: predominant peak ~3.5 min, 95% confidence intervals in brackets
Description: (§1) HMDM were seeded at 30,000 cells/well, CHO-C5aR at 5,000 cells/well and CHO-K1 at 7,500 cells/well and incubated overnight in 384-well E-Plates (Roche). Ligand preparation and cell treatment was as described for the EPIC® protocol above. However, during the buffer exchange equilibration steps, cells were kept in the incubator at 37 °C with 5% CO2. HMDM were media exchanged with serum-free IMDM and incubated for 2 h prior to ligand addition with recordings at 37 °C. Ligands for the HMDM experiments were prepared in serum-free media. To ensure consistency with the EPIC® data, time point for data analysis was determined by a number of different factors, mainly maximum response of predominant peak (Figure 2), but point at which the EC50 was stable over this time according to the RTCA software was also used to confirm the time point

human C5aR [2] = target: T1, human C5aR; experiment: EPIC label-free optical system on CHO-C5aR cells; type: cell-based; details: peak response ~5 min, 95% confidence intervals in brackets
Description: (§2) HMDM were seeded, at 50,000 cells/well and CHO-C5aR and CHO-K1 at 7,500 cells/well, into fibronectin-coated cell-based EPIC® plates (Corning) and incubated overnight. Prior to ligand addition, media was exchanged for HBSS (Invitrogen Life Technologies): 20 mM HEPES (Sigma Aldrich) buffer, supplemented with 0.5% DMSO, and allowed to equilibrate at 26 °C for 1 h (HMDM) or 2 h (CHO-C5aR and CHO-K1) within the instrument. Agonists were prepared at a final DMSO concentration of 0.5% in HBSS:HEPES buffer. After ligand addition, measurements were taken continuously for 1–2 h at 26 °C. Peak amplitude response (Figure 2) was measured for data analysis using Corning EPIC® software.

human C5aR [3] = target: T1, human C5aR; experiment: Alphascreen SureFire phospho-ERK1/2 assay in CHO-C5aR cells; type: cell-based; details: for EC50: 95% confidence intervals in brackets, read-out: ERK (EC50)
Description: (§3) Alphascreen (Amplified Luminescent Proximity Homogeneous Assay Screen) SureFire phospho-ERK1/2 assay was performed according to manufacturers’ instructions (Perkin Elmer). AlphaScreen involves the use of two beads, denoted the donor and acceptor beads. When both beads are bound as a pair to an analyte and the donor bead is excited, a singlet oxygen is released which activates the acceptor bead. As there is a distance constraint here, only beads in close proximity can lead to further reactions that produce the detectable chemiluminescent signal. Briefly, HMDM and CHO-C5aR cells were serum starved and incubated in 96-well tissue culture plates (Nunc) overnight at 60,000 and 50,000 cells/well, respectively. Ligands were prepared in serum-free media at a final DMSO concentration of 1%. Ligands were incubated at room temperature for 10 and 15 min with HMDM and CHO-C5aR, respectively. Media was removed and cells were lysed with lysis buffer for 10 min on a shaker, 4 μL of lysate was transferred to a white 96-well half area plate (Perkin Elmer) and incubated in the presence of 7 μL of reaction mix. The plate was sealed with TopSeal-A, incubated for 2 h at 37 °C and measured on an Envision plate reader (Perkin Elmer). Each data point was performed in triplicate and repeated in at least three separate experiments.

C5aR [4] = system: C5aR; design: method as in PMID 7930622; details: neutrophils; cited from earlier work
human C5aR [5] = target: T1, human C5aR; experiment: 125I-C5a competitive receptor binding (SPA) on CHO-C5aR membranes; details: for IC50: CHO-C5aR membranes, 25 pM 125I-C5a, 95% confidence intervals in brackets
Description: Membranes were prepared from CHO-C5aR cells by modification of a previously described method. Briefly, cells were washed with PBS, pH 7.4, and harvested into buffer (50 mM Tris-HCl, pH 7.4, 5 mM MgCl2, 1 mM CaCl2) before homogenising with a Polytron homogeniser for 3 min on setting 22. Cells were centrifuged at 150× g for 5 min at 4 °C. The supernatant was recovered and centrifuged at 22,000× g for 1 h at 4 °C. Membrane pellets were then resuspended in 0.4 mL of ice-cold assay buffer A (50 mM Tris-HCl, pH 7.4, 5 mM MgCl2, 1 mM CaCl2, 0.5% bovine serum albumin (BSA) (Sigma Aldrich) containing 10% glycerol) with aliquots stored at −80 °C. The protein concentration of the membrane preparations was determined by the Bradford method.
(§4) The scintillation proximity assay (SPA) was used to study ligand binding interactions with the receptor. The basic principle of the assay involved coupling receptor membrane preparations to coated SPA beads. When a radiolabelled ligand, which is able to bind to the receptor coupled onto the SPA bead, interacts with the receptor it will be close enough in proximity to activate the SPA bead. The radiolabel emits radiation that leads to the production of a light signal by activation of the scintillant in the bead. More specifically for our studies, receptor binding studies were performed using Polyvinyltoluene (PVT) scintillation beads, which have wheat germ agglutinin (WGA) covalently attached on the surface (Perkin Elmer). These beads allow for the development of a homogeneous GPCR radioligand binding assay using cellular membranes or whole cells. Briefly, receptor SPA studies were performed in 96-well white isoplates with clear flat bottoms (Perkin Elmer). ^125I-C5a (~25 pM) (specific activity, 2,200 Ci/mmol) (Perkin Elmer) was added to either CHO-C5aR membrane preparations (~2 µg/well) or HMDM (25,000 cells/well). SPA beads (200 µg/well) were then added, followed by the addition of various concentrations of competing ligands (6 pM to 100 µM) in a total volume of 80 µL of buffer A (CHO-C5aR) or B (HMDM) (50 mM Tris-HCl, pH 7.4, 0.5% BSA, and either 5 mM MgCl2, 1 mM CaCl2 (A) or 3 mM MgCl2, 0.1 mM CaCl2 (B)). The final reaction volume per well comprised 20 µL of ligand/buffer, 20 µL of PVT WGA SPA beads, 20 µL of membrane/cells and the assay was initiated by the addition of 20 µL of ^125I-C5a. The plate was then sealed using TopSeal-A (Perkin Elmer) sealing film and incubated with shaking for 1 h at room temperature. Radioligand binding was then assessed for 30 s/well using a 1450 Microbeta scintillation counter (Perkin Elmer). All binding and subsequent assay data, unless stated otherwise, was analysed using GraphPad Prism 5.0c (GraphPAD Software Inc., San Diego, CA, USA).

human C5aR [6] = target: T1, human C5aR; experiment: 125I-C5a competitive receptor binding (SPA) on HMDM; details: for IC50: 25 pM 125I-C5a, 95% confidence intervals in brackets
Description: as §4

human C5aR [7] = target: T1, human C5aR; experiment: EPIC label-free optical system on HMDM; type: cell-based; details: peak response ~5 min, 95% confidence intervals in brackets
Description: as §2

human C5aR [8] = target: T1, human C5aR; experiment: Alphascreen SureFire phospho-ERK1/2 assay in HMDM; type: cell-based; details: for EC50: 95% confidence intervals in brackets, read-out: ERK (EC50)
Description: as §3

human C5aR [9] = target: T1, human C5aR; experiment: xCELLigence label-free impedance system on CHO-C5aR cells; type: cell-based; details: predominant peak ~3.5 min, 95% confidence intervals in brackets
Description: as §1

C5aR [10] = details: different cell types and assay platforms; cited from earlier work

Molecule	EC50 (human C5aR [1])	EC50 (human C5aR [2])	ERK EC50 relative to that of C5a (human C5aR [3])	ERK response relative to the native ligand C5a (efficacy) (human C5aR [3])	EC50 (human C5aR [3])	Functional character in myeloperoxidase release (C5aR [4])	IC50 (human C5aR [5])	IC50 (human C5aR [6])	EC50 (human C5aR [7])	ERK response relative to the native ligand C5a (efficacy) (human C5aR [8])	EC50 (human C5aR [8])	EC50 (human C5aR [9])	Reduction in potency compared to C5a (C5aR [10])	Difference in binding IC50 relative to C5a (human C5aR [5]; CHO-C5aR)	Difference in binding IC50 relative to C5a (human C5aR [6])
CN[C@@H](Cc1ccccc1)C(=O)N[C@@H](CCCCN)C(=O)N1CCC[C@H]1C(=O)N[C@H](CC1CCCCC1)C(=O)N[C@H](CC1CCCCC1)C(=O)N[C@H](CCCNC(=N)N)C(=O)O [Peptide agonist, NMePhe-Lys-Pro-dCha-dCha-dArg-COOH] (H-[NMeF]KP[dCha][dCha][dR]-OH)	546 nM	347 nM	~ 30 fold	potentiation of the response relative to the native ligand	5 nM	full agonist	47 nM	132 nM	563 nM	characteristics of a partial agonist; also recorded: partial agonist activity	120 nM	351 nM			
CN[C@@H](Cc1ccccc1)C(=O)N[C@@H](CCCCN)C(=O)N1CCC[C@H]1C(=O)N[C@H](CC1CCCCC1)C(=O)N[C@H](Cc1cccc2ccccc12)C(=O)N[C@H](CCCNC(=N)N)C(=O)O [Peptide partial agonist, NMePhe-Lys-Pro-dCha-dNal-dArg-COOH] (H-[NMeF]KP[dCha][d1Nal][dR]-OH)				approximately half of the response relative to C5a						approximately half of the response relative to C5a					
C5a des-Arg													10–1,000 fold	~ 6 fold	~ 2 fold
B1	20 nM	11 nM			2 nM		1.2 nM and 1.23 nM	2.5 nM	47 nM		0.55 nM	44 nM			
B2	89 nM	24 nM			0.15 nM		0.2 nM	1.2 nM	107 nM		0.47 nM	16 nM			
